Consider 14 compounds from patent US8257931B2 (President and Fellows of Harvard College, priority 2005, dated 2012).

Read-outs that look alike come from different tables or passages of the source.

For one assay, the system named is A549 and HT29 cell lines. Briefly: Alamar Blue growth inhibition, statements covering both A549 and HT29. In kind it is cell-based, human. To be noted: Homo sapiens. As for the experimental part:
Adherent human solid tumor cells were plated and maintained for 3 days in the presence of increasing concentration of the compounds, and cell proliferation was measured by alamar blue assay, where 10% of commercially available solution is added to the cell medium and measure fluorescence in 96-well plates at wavelength of 530 nm excitation and 590 nm emission. The data calculations were carried out as previously described.
Compounds were further tested for cell growth inhibition in a human lung cancer cell line (A549) and conlon cancer cell line (HT29). The Alamar Blue assay, which specifically measures the inhibition of cell proliferation, was used to assess the GI50's of the compounds.
Background: Alamar Blue is a resazurin reagent that responds to reducing activity.

The target of a further assay is eIF4E (Mus musculus, UniProt P63073). Briefly: FP assay competing with fluorogenic eIF4G-derived peptide (KRYDREFLLGF). In kind it is binding. The conditions noted are these: relative to hit compound 1. Here is the method:
The values indicate the average concentration needed to inhibit 50% of cell proliferation. […] A dual luciferase reporter mRNA was translated for 90 minutes at 30° C. in RedNova reticulocyte lysate (Novagen) in the presence of increasing concentrations of the compound. […] (purple) activity was measured and normalized against an untreated control reaction. The m^7GDP and emetine were used as the positive and negative controls, respectively.
Displacement of Nα-fluorescein tagged eIF4G-derived peptide by a competing ligand causes a large decrease in fluorescence polarization. The non-tagged version of the same eIF4G-derived peptide and DMSO were used as positive and negative control, respectively.

In another assay the target is T1, eIF4E/eIF4G interaction (Mus musculus, UniProt P63073).
T1 construct: made in house; host or cells: E. coli
Briefly: Fluorescence polarization assay: binding of fluorescein-labeled eIF4G peptide to eIF4E. On the set-up: species or system murine. The conditions noted are these: for IC50: triplicate, SD<±10%, read-out: IC50 (μM) (4E/4G FP). Here is the method:
We adapted this assay to a microwell plate format and used it to screen the 16,000 compound Chembridge DiverSet E library. […] For screening and subsequent peptide binding assays measurements of fluorescence polarization were made using an LJL Analyst plate reader. For the screening assay a solution containing approximately 5 μM meIF4E, 60 nM labeled peptide, 0.05% bovine γ-globulin, and 2 mM DTT in a buffer composed of 50 mM sodium phosphate and 50 mM potassium chloride at pH 6.5 was used. […] The curve fitting for estimation of binding constants used equations derived by Roehrl et al.^22 Measurements of fluorescence polarization and anisotropy were made in black 384-well plates (Corning) using an Analyst plate reader (LJL Biosystems) Compounds were transferred to plates during the screening using a custom-built Seiko pin transfer robot at the Institute for Chemistry and Cell Biology (ICCB) at Harvard Medical School.
A fluorescence polarization (FP) assay was developed to measure binding of a peptide containing the conserved eIF4E-binding motif to eIF4E.
The assay was adapted to a microwell plate format and used to screen a number of libraries comprised of small molecule libraries for potential eIF4E/eIF4G interaction inhibitors.
For orientation: In fluorescence polarisation assays a small probe gives low polarisation when free and higher when bound to something large.

Another assay deals with A549 lung cancer cells. Briefly: A549 proliferation, sulforhodamine B (SRB) assay. In kind it is cell-based, human. To be noted: sulforhodamine B assay, triplicate. Here is the method: FIG. 28 is a graph showing the results of a cell proliferation assay. A549 cells, which are human lung cancer cells, are grown in plates for five days in medium containing 5% FCS and compound. The number of cells is quantified by staining with sulforhodamine B.
For orientation: Sulforhodamine B stains cellular protein and so reports cell mass.

[1] abbreviates: HT29 or A549, at least one, read-out: GI50 in at least one cell line.
The mark [2] stands for this setting: Homo sapiens, A549, Table 1 of b280.
The mark [3] stands for this setting: Homo sapiens, A549, Table 1 of b347.

Sequence of eIF4E (P63073 whole entry): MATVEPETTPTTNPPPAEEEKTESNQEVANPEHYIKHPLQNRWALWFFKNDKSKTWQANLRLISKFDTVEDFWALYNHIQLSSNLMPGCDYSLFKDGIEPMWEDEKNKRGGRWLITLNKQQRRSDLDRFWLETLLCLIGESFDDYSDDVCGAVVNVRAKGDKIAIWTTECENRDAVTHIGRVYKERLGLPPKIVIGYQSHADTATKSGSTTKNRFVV
T1 sequence (P63073 whole entry): as above

Broadly, the GI50 is the concentration giving 50% growth inhibition. Turning to `O=C(O)C(Cc1ccccc1[N+](=O)[O-])=NNc1nc(-c2ccc(N3CCOCC3)cc2)cs1` [4h, 2-{[4-(4-Morpholin-4-yl-phenyl)-thiazol-2-yl]-hydrazono}-3-(2-nitro-phenyl)-propionic acid], the concentration for 50% growth inhibition (GI50) in the assay on A549 and HT29 cell lines (HT29 and A549, both, read-out: GI50 in both cell lines) was above 24 µM. At eIF4E, the “binding affinity / potency in FP assay compared with hit compound 1” value was “significantly less active”.
As to `O=C(O)C(Cc1ccccc1[N+](=O)[O-])=NNc1nc(-c2ccc3c(c2)OCCO3)cs1` [4d, 2-{[4-(2,3-Dihydro-benzo[1,4]dioxin-6-yl)-thiazol-2-yl]-hydrazono}-3-(2-nitro-phenyl)-propionic acid], the 50% growth inhibitory concentration (GI50) in the assay on A549 and HT29 cell lines (setting [1]) is below 10 µM. The “binding affinity / potency in FP assay compared with hit compound 1” value at eIF4E is reported as “more than 2 fold”.
For `O=C(O)C(Cc1ccccc1[N+](=O)[O-])=NNc1nc(-c2ccc(-c3ccccc3)cc2)cs1` [4f, 2-[(4-Biphenyl-4-yl-thiazol-2-yl)-hydrazono]-3-(2-nitro-phenyl)-propionic acid], the GI50 in the assay with A549 and HT29 cell lines (setting [1]) is below 10 µM.
Take `O=C(O)C(Cc1ccccc1[N+](=O)[O-])=NNc1nc(-c2ccc3ccccc3c2)cs1` [4c, 2-[(4-Naphthalen-2-yl-thiazol-2-yl)-hydrazono]-3-(2-nitro-phenyl)-propionic acid]: the concentration for 50% growth inhibition (GI50) with A549 and HT29 cell lines (setting [1]) was below 10 µM.
Take `O=C(O)C(Cc1ccccc1[N+](=O)[O-])=NNc1nc(-c2ccc(N=Nc3ccccc3)cc2)cs1` [4j]: the “binding affinity / potency in FP assay compared with hit compound 1” value at eIF4E was around 3 fold.
In the case of `O=C(O)/C(=N/Nc1nc(-c2ccccc2)cs1)c1ccccc1` [Z-6, Phenyl-[(4-phenyl-thiazol-2-yl)-hydrazono]-acetic acid], the IC50 on eIF4E/eIF4G interaction (Table 1 of b280) and on eIF4E/eIF4G interaction (Table 1 of b347) was above 600 µM in each case. Further, the GI50 in the assay with A549 lung cancer cells (setting [2]) and in the assay with A549 lung cancer cells (setting [3]) was 13 µM each time.
For `O=C(O)/C(Cc1ccccc1)=N/Nc1nc(-c2ccccc2)c(-c2ccccc2)s1` [Z-10, 2-[(4,5-Diphenyl-thiazol-2-yl)-hydrazono]-3-phenyl-propionic acid], the IC50 at eIF4E/eIF4G interaction (Table 1 of b280) and on eIF4E/eIF4G interaction (Table 1 of b347) was 50 µM each time. Besides, the “potency compared with its E isomer” value at eIF4E/eIF4G interaction (eIF4E/4G assay) is reported as “two-fold more potent”. The “potency compared with the initial hit” value at eIF4E/eIF4G interaction (eIF4E/4G assay) is given as “one order of magnitude more potent”. Further, the GI50 in the assay on A549 lung cancer cells (setting [2]) and in the assay with A549 lung cancer cells (setting [3]) was 1 µM in each case.
With `O=C(O)/C(Cc1ccccc1)=N/NC(=S)NCc1ccccc1` [compound 8], the IC50 on eIF4E/eIF4G interaction (Table 1 of b280) and on eIF4E/eIF4G interaction (Table 1 of b347) was 550 µM in each case. In addition, the 50% growth inhibitory concentration (GI50) in the assay on A549 lung cancer cells (setting [2]) and in the assay on A549 lung cancer cells (setting [3]) was above 10 µM throughout.
On to `O=C(O)/C(Cc1ccccc1)=N/Nc1ccc(-c2ccccc2)nn1` [E-17, 3-Phenyl-2-[(6-phenyl-pyridazin-3-yl)-hydrazono]-propionic acid], for which the IC50 on eIF4E/eIF4G interaction (Table 1 of b347) was above 600 µM. Growth in the assay with A549 lung cancer cells (setting [3]) was halved (GI50) at 7.5 µM.
In the case of `O=C(O)/C(Cc1ccccc1[N+](=O)[O-])=N/Nc1nc(-c2ccc3ccccc3c2)cs1`, on eIF4E/eIF4G interaction (Table 1 of b280), the IC50 was found to be 215 µM. In addition, in the assay on A549 lung cancer cells (setting [2]), the GI50 was found to be 6 µM.
With `Cc1sc(N/N=C(\Cc2ccccc2)C(=O)O)nc1-c1ccccc1` [Z-9, 2-[(5-Methyl-4-phenyl-thiazol-2-yl)-hydrazono]-3-phenyl-propionic acid], the IC50 at eIF4E/eIF4G interaction (Table 1 of b280) and on eIF4E/eIF4G interaction (Table 1 of b347) was 240 µM in each case. For the same compound, the GI50 in the assay on A549 lung cancer cells (setting [2]) and in the assay with A549 lung cancer cells (setting [3]) was 4 µM each time.
As to `C(/Cc1ccccc1)=N/Nc1nc(-c2ccccc2)cs1` [Z-5, N-Phenethylidene-N′-(4-phenyl-thiazol-2-yl)-hydrazine], the IC50 on eIF4E/eIF4G interaction (Table 1 of b280) and on eIF4E/eIF4G interaction (Table 1 of b347) was above 600 µM in each case. In addition, the concentration for 50% growth inhibition (GI50) in the assay with A549 lung cancer cells (setting [2]) and with A549 lung cancer cells (setting [3]) was 7 µM throughout.
Regarding `O=C(O)C(Cc1ccccc1)=NNc1nnc(-c2ccccc2)s1` [E-16, 3-Phenyl-2-[(5-phenyl-[1,3,4]thiadiazol-2-yl)-hydrazono]-propionic acid], the IC50 at eIF4E/eIF4G interaction (Table 1 of b347) was above 600 µM. The GI50 with A549 lung cancer cells (setting [3]) worked out at 9 µM.
With `O=C(O)/C(Cc1ccccc1)=N/Nc1nc2ccccc2s1` [Z-11, 2-(Benzothiazol-2-yl-hydrazono)-3-phenyl-propionic acid], the IC50 on eIF4E/eIF4G interaction (Table 1 of b280) and at eIF4E/eIF4G interaction (Table 1 of b347) was above 600 µM each time. Also, the 50% growth inhibitory concentration (GI50) is above 20 µM in the assay with A549 lung cancer cells (Table 1) and above 20 µM in the assay on A549 lung cancer cells (Table 1, listed as Z-4p).
